Reference: patent publication US20240246946A1, “MODULATORS OF TREX1” (Constellation Pharmaceuticals, Inc., priority 2021, published 2024)

Key:
[1] = target: T1, human TREX2 (residues M44-A279) (Homo sapiens, UniProt Q9BQ50); experiment: hTREX2 Biochemical Assay (fluorescence, dsDNA substrate degradation); conditions: biochemical selectivity for hTREX1 vs hTREX2
T1 construct: human TREX2 (residues M44-A279, expressed in E. coli); made in house; host or cells: E. coli
T1 sequence (Q9BQ50 44-279 isoform Q9BQ50-1): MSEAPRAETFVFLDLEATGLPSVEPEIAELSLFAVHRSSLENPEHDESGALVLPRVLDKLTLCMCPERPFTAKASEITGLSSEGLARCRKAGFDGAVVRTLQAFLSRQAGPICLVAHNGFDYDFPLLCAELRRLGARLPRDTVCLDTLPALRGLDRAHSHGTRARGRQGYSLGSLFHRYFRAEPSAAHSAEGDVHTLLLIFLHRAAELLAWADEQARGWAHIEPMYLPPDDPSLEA
Protocol: Degradation of the dsDNA liberates free fluorophore to produce a fluorescent signal. Specifically, 7.5 μL of N-terminally His-Tev tagged human TREX2 (residues M44-A279, expressed in E. coli and purified in house) in reaction buffer (50 mM Tris, 150 mM NaCl, 2 mM DTT, 0.1 mg/mL BSA, 0.01% (w/v) Tween-20, 5 mM MgCl2, pH 7.4) was added to a 384-well Black ProxiPlate Plus (PerkinElmer) which already contained compound (150 nL) at varying concentrations as a 10 point dose-response in DMSO. The plate was incubated at 25° C. for 4 hours. Reactions were initiated by adding 7.5 μL of dsDNA substrate (Strand A: 5′ TEX615/GCT AGG CAG 3′; Strand B: 5′ CTG CCT AGC/IAbRQSp (IDT)) in reaction buffer. Final concentrations were 50 pM TREX2, 60 nM dsDNA substrate in reaction buffer with 1.0% DMSO (v/v). After 18 hours at 25° C., reactions were quenched by the addition of 2 μL of 500 mM EDTA. Final concentrations in the quenched reaction mixture were 44 pM TREX2, 53 nM DNA and 59 mM EDTA in a volume of 17 μL. After a 5-minute incubation at room temperature, plates were read in an EnVision plate reader (PerkinElmer) measuring fluorescence at 615 nm following excitation w/570 nm light.

full length human TREX1 = target: T2, full length human TREX1 (Homo sapiens, UniProt Q9NSU2); experiment: hTREX1 Biochemical Assay (fluorescence, dsDNA substrate degradation); conditions: biochemical, read-out: hTREX1 IC50
T2 construct: N-terminally His-Tev tagged full length human TREX1; made in house; host or cells: E. coli
T2 sequence (Q9NSU2 1-314): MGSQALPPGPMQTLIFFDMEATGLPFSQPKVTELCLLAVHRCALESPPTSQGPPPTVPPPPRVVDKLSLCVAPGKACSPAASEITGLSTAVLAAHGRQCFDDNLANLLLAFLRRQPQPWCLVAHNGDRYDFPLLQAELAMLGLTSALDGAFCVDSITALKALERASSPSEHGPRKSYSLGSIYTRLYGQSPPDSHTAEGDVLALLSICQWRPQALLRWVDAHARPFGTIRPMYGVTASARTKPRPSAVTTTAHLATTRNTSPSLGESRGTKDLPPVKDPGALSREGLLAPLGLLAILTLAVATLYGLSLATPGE
In short: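 Fluorescence rises as enzyme degrades a quenched TEX615-labelled dsDNA substrate (60 nM) in 50 mM Tris, 150 mM NaCl, 5 mM MgCl2, pH 7.4. Full-length His-Tev-tagged human TREX1, 4 pM, sits with compound 4 hours at 25° C before substrate; reaction 18 hours, stopped with EDTA.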

full length mouse TREX1 = target: T3, full length mouse TREX1 (Mus musculus, UniProt Q91XB0); experiment: mTREX1 Biochemical Assay (fluorescence, dsDNA substrate degradation); conditions: biochemical, read-out: mTREX1 IC50
T3 construct: N-terminally His-Tev tagged full length mouse TREX1; made in house; host or cells: E. coli
T3 sequence (Q91XB0 1-314): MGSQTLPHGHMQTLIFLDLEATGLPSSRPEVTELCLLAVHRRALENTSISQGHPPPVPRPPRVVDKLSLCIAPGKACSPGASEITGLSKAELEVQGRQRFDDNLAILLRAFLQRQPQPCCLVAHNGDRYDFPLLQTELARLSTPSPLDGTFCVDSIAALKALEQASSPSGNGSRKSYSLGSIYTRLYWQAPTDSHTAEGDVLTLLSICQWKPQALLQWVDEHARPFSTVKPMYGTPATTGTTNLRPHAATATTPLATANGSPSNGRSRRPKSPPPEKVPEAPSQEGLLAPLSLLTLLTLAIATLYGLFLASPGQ
In short: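 Reaction run 18 h at 25° C. with 60 nM TEX615/quencher-labelled dsDNA and 6 pM mouse TREX1 in Tris buffer (pH 7.4, 5 mM MgCl2, 1.0% DMSO), enzyme having sat 4 h with compound across 10 concentrations. EDTA quench; substrate degradation measured as fluorescence increase.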

Compound | hTREX1 vs hTREX2 selectivity [1] | IC50 (full length human TREX1) | IC50 (full length mouse TREX1)
CC(c1nc(C(=O)Nc2cnoc2)c(O)c(=O)n1C)C(c1cn[nH]c1)c1ccccc1C#N (single isomer, unassigned) [Example 12 D1E2] | B (B = 25 to 50-fold selective for hTREX1) | > 10 nM | > 10 nM
Cc1ccc(C(c2ccccc2C#N)C(C)c2nc(C(=O)Nc3cnoc3)c(O)c(=O)n2C)cn1 (single isomer, unassigned) [Example 5 D2E1] | B (B = 25 to 50-fold selective for hTREX1) | > 10 nM | > 10 nM
COCCn1cc(C(c2ccccc2C#N)C(C)c2nc(C(=O)Nc3cnoc3)c(O)c(=O)n2C)c(C)n1 (single isomer, unassigned) [Example 71 D2E1] |  | > 10 nM | > 10 nM
CC(c1nc(C(=O)Nc2cnoc2)c(O)c(=O)n1C)C(c1ncn(C)n1)c1ccccc1C#N (single isomer, unassigned) [Example 51 D2E2] |  | > 10 nM | > 10 nM
CC(c1nc(C(=O)Nc2cnoc2)c(O)c(=O)n1C)C(c1cnn(C)c1)c1ccc(C(F)(F)F)cc1C#N (single isomer, unassigned) [Example 30 D2E1] |  | > 10 nM | > 10 nM
Cc1cn(C)nc1C(c1ccccc1C#N)C(C)c1nc(C(=O)Nc2cnoc2)c(O)c(=O)n1C (single isomer, unassigned) [Example 64 D2E2] |  | > 10 nM | > 10 nM
CC(c1nc(C(=O)Nc2cnoc2)c(O)c(=O)n1C)C(c1cnn(C)c1)c1cc(C(F)(F)F)ccc1C#N (single isomer, unassigned) [Example 29 D2E2] |  | > 10 nM | > 10 nM
CC(c1nc(C(=O)Nc2cnoc2)c(O)c(=O)n1C)C(c1cnn(CC2CC2)c1)c1ccccc1C#N (single isomer, unassigned) [Example 23 D2E2] |  | > 10 nM | > 10 nM
Cn1cc(C(c2ccccc2C#N)C(c2nc(C(=O)Nc3cnoc3)c(O)c(=O)n2C)C(F)(F)F)cn1 (single isomer, unassigned) [Example 40 D1E1] |  | > 10 nM | > 10 nM
Cc1nn(C)cc1C(c1cc(F)ccc1C#N)C(c1nc(C(=O)Nc2cnoc2)c(O)c(=O)n1C)C(F)(F)F (single isomer, unassigned) [Example 42 D1E1] |  | > 10 nM | > 10 nM
CC(c1nc(C(=O)Nc2cnoc2)c(O)c(=O)n1C)C(c1ncn(C)n1)c1ccccc1C#N (single isomer, unassigned) [Example 51 D1E1] |  | > 10 nM | > 10 nM
CC(c1nc(C(=O)Nc2cnoc2)c(O)c(=O)n1C)C(c1cnn(C)c1)c1cc(Cl)ccc1C#N (single isomer, unassigned) [Example 26 D1E1] |  | > 10 nM | > 10 nM
CC(c1nc(C(=O)Nc2cnoc2)c(O)c(=O)n1C)C(c1cnn(C(F)F)c1)c1ccccc1C#N (single isomer, unassigned) [Example 38 D1E2] |  | > 10 nM | > 10 nM
CCn1ncc(C(c2ccc(F)cc2C#N)C(C)c2nc(C(=O)Nc3cnoc3)c(O)c(=O)n2C)c1C (single isomer, unassigned) [Example 65 D1E2] |  | > 10 nM | > 10 nM
CC(c1nc(C(=O)Nc2cnoc2)c(O)c(=O)n1C)C(c1cnn(C)c1)c1cc(F)ccc1Cl (single isomer, unassigned) [Example 61 D2E1] |  | > 10 nM | > 10 nM
Cc1ncc(C(c2ccccc2Cl)C(C)c2nc(C(=O)Nc3cnoc3)c(O)c(=O)n2C)cn1 (single isomer, unassigned) [Example 44 D2E1] |  | > 10 nM | > 10 nM
Cc1cc(C(c2ccccc2C#N)C(C)c2nc(C(=O)Nc3cnoc3)c(O)c(=O)n2C)n(C)n1 (single isomer, unassigned) [Example 63 D2E2] |  | > 10 nM | > 10 nM
CC(c1nc(C(=O)Nc2cnoc2)c(O)c(=O)n1C)C(c1cnn(CC(F)(F)F)c1)c1ccccc1C#N (single isomer, unassigned) [Example 22 D2E2] |  | > 10 nM | > 10 nM
COCCn1cc(C(c2cc(F)ccc2C#N)C(C)c2nc(C(=O)Nc3cnoc3)c(O)c(=O)n2C)cn1 (single isomer, unassigned) [Example 18 D1E1] |  | > 10 nM | > 10 nM
Cc1cn(C)nc1C(c1ccccc1C#N)C(C)c1nc(C(=O)Nc2cnoc2)c(O)c(=O)n1C (single isomer, unassigned) [Example 64 D1E2] |  | > 10 nM | > 10 nM

Now from value to compound:

hTREX1 vs hTREX2 selectivity [1] | IC50 (full length human TREX1) | IC50 (full length mouse TREX1) | Compound
C (C = >50 fold selective for hTREX1) | 1 to 10 nM | > 10 nM | Cc1cc(C(c2ccccc2C#N)C(C)c2nc(C(=O)Nc3cnoc3)c(O)c(=O)n2C)n(C)n1 (single isomer, unassigned) [Example 63 D1E2]
A (A = <25 fold selective for hTREX1) | > 10 nM | > 10 nM | CC(c1nc(C(=O)Nc2cnoc2)c(O)c(=O)n1C)C(c1cnn(C)c1)c1ccccc1Cl (single isomer, unassigned) [Example 77 D2E2]
A (A = <25 fold selective for hTREX1) | > 10 nM | > 10 nM | Cc1cnc(C(c2cc(F)ccc2Cl)C(C)c2nc(C(=O)Nc3cnoc3)c(O)c(=O)n2C)cn1 (single isomer, unassigned) [Example 117 D2E2]
A (A = <25 fold selective for hTREX1) | > 10 nM | > 10 nM | CC(c1nc(C(=O)Nc2cnoc2)c(O)c(=O)n1C)C(c1ccccc1Cl)n1nccc1C#N (single isomer, unassigned) [Example 140 D1E2]
C (C = >50 fold selective for hTREX1) | < 1 nM | < 1 nM | CCn1cc(C(c2ccc(F)cc2C#N)C(C)c2nc(C(=O)Nc3cnoc3)c(O)c(=O)n2C)c(C)n1 (single isomer, unassigned) [Example 55 D1E1]
 | > 10 nM | > 10 nM | COC(C)(C)Cn1cc(C(c2ccccc2C#N)C(C)c2nc(C(=O)Nc3cnoc3)c(O)c(=O)n2C)cn1 (single isomer, unassigned) [Example 37 D1E2]
 | > 10 nM | > 10 nM | Cc1cc(C(c2ccccc2C#N)C(C)c2nc(C(=O)Nc3cnoc3)c(O)c(=O)n2C)ccn1 (single isomer, unassigned) [Example 6 D2E1]
 | > 10 nM | > 10 nM | CC(c1nc(C(=O)Nc2cnoc2)c(O)c(=O)n1C)C(c1cnn(C)c1)c1ccncc1C#N (single isomer, unassigned) [Example 8 D2E1]
 | > 10 nM | > 10 nM | CC(c1nc(C(=O)Nc2cnoc2)c(O)c(=O)n1C)C(c1cnn(C)c1)c1ccc(C(=O)N(C)C)cc1C#N (single isomer, unassigned) [Example 11 D2E2]
 | < 1 nM | > 10 nM | Cc1cn(C)nc1C(c1ccccc1C#N)C(C)c1nc(C(=O)Nc2cnoc2)c(O)c(=O)n1C (single isomer, unassigned) [Example 64 D1E1]
